Values of other authors in patent US20050163829A1, “Device and patch for controlled release of vanillin” (priority 2001, published 2005).

Columns and labels:
[1] = test system: glutamate receptors (NMDA)
[2] = test system: nicotinic acetylcholine receptor (nACh)
[3] = test system: glutamate receptors (KA)
[4] = test system: GABA receptor

Structure (SMILES)	effect on the glutamate receptor NMDA [1]	effect on the nicotinic acetylcholine receptor (nACh) [2]	effect on the glutamate receptor KA [3]	effect on the GABA receptor [4]
COc1cc(C=O)ccc1O [Vanillin, 3 methoxy-4 hydroxybenzaldehyde]	inhibitory effect	inhibited	inhibitory effect	inhibited
CCCCOC(C)=O [butyl acetate]				stimulate
CC(C)=CCC/C(C)=C/CO [geraniol]				stimulate
